# Measured values: patent US12077537B2 (Gilead Sciences, Inc., priority 2020, dated 2024)
# Tested on: HIV-IIIb
# Experiment: Antiviral assay in MT4 cells
# Format: cell-based
# Details: Human immunodeficiency virus 1, MT4, 120 h; MT-4 cells mixed with HIV-IIIb at m.o.i. 0.003; 5 days at 37° C.; CellTiter-Glo luminescence; 50% decrease in signal, a measure of HIV-1 replication
# In short: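 MT-4 cells were infected with HIV-IIIb at m.o.i. 0.003 for 1 hour, then added to 3-fold serially diluted compound (10 concentrations, quadruplicate) in medium with 10% FBS. After 5 days at 37° C, cell viability was read by CellTiter-Glo chemiluminescence.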
compound,measurement,value
"Cn1nc(NS(C)(=O)=O)c2cccc(-c3cc4sc(NC5CNC(=O)C5)nc4nc3C(Cc3cc(F)cc(F)c3)NC(=O)Cn3nc(C(F)(F)F)c4c3C(F)(F)[C@@H]3C[C@H]43)c21 (stereo partly drawn) [Example 128, 2-((3bS,4aR)-5,5-difluoro-3-(trifluoromethyl)-3b,4,4a,5-tetrahydro-1H-cyclopropa[3,4]cyclopenta[1,2-c]pyrazol-1-yl)-N-(2-(3,5-difluorophenyl)-1-(6-(1-methyl-3-(methylsulfonamido)-1H-indazol-7-yl)-2-((5-oxopyrrolidin-3-yl)amino)thiazolo[4,5-b]pyridin-5-yl)ethyl)acetamide]",EC50,342 nM
